For one molecule, inhibition results are on record in article PMC6934184, “Selective DNA-PKcs inhibition extends the therapeutic index of localized radiotherapy and chemotherapy” (The Journal of Clinical Investigation, 2019).

The assay has as its target T1, TYK2 (Homo sapiens, UniProt P29597).
T1 construct: purchased Thermo Fisher Scientific (Life Technologies) SelectScreen
Put plainly: SelectScreen Z'LYTE. The format is biochemical. In short, it runs like this: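 Compound tested in SelectScreen activity assays, Z'LYTE for CSF1R, CDK1/cyclin B and MAP2K6 and Adapta for CAMK1. ATP for CAMK1 was listed as 10, and Km app was used for CSF1R. Results are expressed in percent.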

T1 sequence (P29597 whole entry): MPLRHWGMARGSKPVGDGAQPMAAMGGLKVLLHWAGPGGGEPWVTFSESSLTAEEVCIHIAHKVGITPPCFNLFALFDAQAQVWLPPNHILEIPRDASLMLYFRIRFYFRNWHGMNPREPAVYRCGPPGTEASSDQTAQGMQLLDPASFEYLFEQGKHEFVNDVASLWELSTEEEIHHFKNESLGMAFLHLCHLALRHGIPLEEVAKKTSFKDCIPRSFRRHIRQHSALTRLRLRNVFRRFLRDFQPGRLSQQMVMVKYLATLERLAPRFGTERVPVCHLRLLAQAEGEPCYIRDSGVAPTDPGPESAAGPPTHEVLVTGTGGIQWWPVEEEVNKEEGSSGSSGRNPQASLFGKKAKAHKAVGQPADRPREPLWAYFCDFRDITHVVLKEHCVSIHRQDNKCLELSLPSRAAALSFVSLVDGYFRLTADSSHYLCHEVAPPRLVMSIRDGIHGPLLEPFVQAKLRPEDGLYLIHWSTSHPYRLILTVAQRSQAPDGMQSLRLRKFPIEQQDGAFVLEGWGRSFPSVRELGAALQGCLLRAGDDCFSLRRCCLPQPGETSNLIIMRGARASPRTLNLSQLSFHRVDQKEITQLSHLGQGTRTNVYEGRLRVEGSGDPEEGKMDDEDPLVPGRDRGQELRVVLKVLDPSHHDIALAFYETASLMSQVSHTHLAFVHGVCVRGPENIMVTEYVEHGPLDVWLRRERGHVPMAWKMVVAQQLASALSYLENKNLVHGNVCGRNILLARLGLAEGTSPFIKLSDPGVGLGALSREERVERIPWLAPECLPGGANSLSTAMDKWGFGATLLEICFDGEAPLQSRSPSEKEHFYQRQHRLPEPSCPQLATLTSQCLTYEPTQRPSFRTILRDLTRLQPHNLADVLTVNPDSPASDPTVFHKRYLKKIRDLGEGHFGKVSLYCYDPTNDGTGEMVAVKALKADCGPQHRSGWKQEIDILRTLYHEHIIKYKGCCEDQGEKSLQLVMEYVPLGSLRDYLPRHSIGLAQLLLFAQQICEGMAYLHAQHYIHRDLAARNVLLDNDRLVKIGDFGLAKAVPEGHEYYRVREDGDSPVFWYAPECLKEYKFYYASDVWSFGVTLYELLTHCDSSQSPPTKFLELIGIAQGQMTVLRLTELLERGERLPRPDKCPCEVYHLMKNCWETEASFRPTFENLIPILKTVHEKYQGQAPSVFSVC

The inhibition is the drop in the measured response relative to a control, in per cent. A lower inhibition goes with a weak effect. `CN(C(=O)CN1CCOCC1)c1ccc2sc3c(-c4cccc5c(=O)cc(N6CC7CCC(C6)O7)oc45)cccc3c2c1` [NU5455] displayed an inhibition at 1 µM of 4.2%.
